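These data come from cells grown in 96-well plates and exposed to compound for 48 hours at five concentrations. GI50 marks 50% less growth.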 Activity calls are given as the source filed them. Cut-off read from the data, not from the text of the source: active = GI50 up to about 1.1 µM and inactive = higher.
Legend:
Experiment in all cases: NCI tumour cell line growth inhibition, 48 h
OVCAR-4 = tested on: OVCAR-4
NCI/ADR-RES = tested on: NCI/ADR-RES
TK-10 = tested on: TK-10
786-0 = tested on: 786-0
NCI-H23 = tested on: NCI-H23
EKVX = tested on: EKVX
UO-31 = tested on: UO-31
SK-MEL-28 = tested on: SK-MEL-28
SF-539 = tested on: SF-539
A498 = tested on: A498
MDA-MB-231 = tested on: MDA-MB-231
SNB-19 = tested on: SNB-19
DU-145 = tested on: DU-145
RPMI-8226 = tested on: RPMI-8226
COLO 205 = tested on: COLO 205
A549 = tested on: A549
OVCAR-8 = tested on: OVCAR-8
HT-29 = tested on: HT-29
CCRF-CEM = tested on: CCRF-CEM
SK-MEL-2 = tested on: SK-MEL-2

Row | Compound | GI50 (OVCAR-4) | GI50 (NCI/ADR-RES) | GI50 (TK-10) | GI50 (786-0) | GI50 (NCI-H23) | GI50 (EKVX) | GI50 (UO-31) | GI50 (SK-MEL-28) | GI50 (SF-539) | GI50 (A498) | GI50 (MDA-MB-231) | GI50 (SNB-19) | GI50 (DU-145) | GI50 (RPMI-8226) | GI50 (COLO 205) | GI50 (A549) | GI50 (OVCAR-8) | GI50 (HT-29) | GI50 (CCRF-CEM) | GI50 (SK-MEL-2)
1 | CSCCC(N)P(C)(=O)O (centres undefined) | > 100 µM (inactive) | > 100 µM (inactive) | > 100 µM (inactive) | > 100 µM (inactive) | > 100 µM (inactive) | > 100 µM (inactive) | > 100 µM (inactive) | > 100 µM (inactive) | > 100 µM (inactive) | > 100 µM (inactive) | > 100 µM (inactive) | > 100 µM (inactive) | > 100 µM (inactive) | > 100 µM (inactive) | > 100 µM (inactive) | > 100 µM (inactive) | > 100 µM (inactive) | > 100 µM (inactive) | > 100 µM (inactive) | > 100 µM (inactive)
2 | CN(C)CCNC(=O)c1ccc(NCCCN(C)CCCNc2ccc(C(=O)NCCN(C)C)c3nc4ccccc4c(O)c23)c2c(O)c3ccccc3nc12 | < 0.0164 µM (active) | 1.8 µM (inactive) | 0.16 µM (active) | < 0.01 µM (active) | < 0.0122 µM (active) | 0.115 µM (active) | 0.326 µM (active) | 0.161 µM (active) | 0.274 µM (active) | 0.13 µM (active) | 0.111 µM (active) | < 0.01 µM (active) | < 0.0114 µM (active) | < 0.01 µM (active) | < 0.0109 µM (active) | < 0.01 µM (active) | < 0.01 µM (active) | < 0.01 µM (active) | < 0.012 µM (active) | < 0.0211 µM (active)
3 | CO/N=C\c1ccc2c(c1)Sc1ccccc1O2 | 43.9 µM (inactive) | 90.6 µM (inactive) | > 100 µM (inactive) | 69.5 µM (inactive) | 63 µM (inactive) | 30.2 µM (inactive) | 58.3 µM (inactive) | > 100 µM (inactive) | 40.7 µM (inactive) | > 100 µM (inactive) | > 100 µM (inactive) | > 100 µM (inactive) | > 100 µM (inactive) | 55.7 µM (inactive) | 66.4 µM (inactive) | 44.8 µM (inactive) | 95.9 µM (inactive) | 33.1 µM (inactive) | – | 35.1 µM (inactive)
4 | CCOP(=Nc1ccc(N(C)C)cc1)(OCC)OCC | > 100 µM (inactive) | > 100 µM (inactive) | > 100 µM (inactive) | – | > 100 µM (inactive) | > 100 µM (inactive) | > 100 µM (inactive) | > 100 µM (inactive) | – | > 100 µM (inactive) | > 100 µM (inactive) | > 100 µM (inactive) | > 100 µM (inactive) | > 100 µM (inactive) | > 100 µM (inactive) | > 100 µM (inactive) | > 100 µM (inactive) | – | – | > 100 µM (inactive)
5 | c1cc2nnc1SCCCSc1ccc(nn1)SCCCS2 | 16.1 µM (inactive) | > 20.5 µM (inactive) | 35.5 µM (inactive) | 24.2 µM (inactive) | 34.8 µM (inactive) | > 100 µM (inactive) | > 100 µM (inactive) | > 46.5 µM (inactive) | 23.5 µM (inactive) | 97.7 µM (inactive) | 30 µM (inactive) | 33.1 µM (inactive) | > 48 µM (inactive) | > 25.3 µM (inactive) | > 47 µM (inactive) | 41.6 µM (inactive) | > 39.6 µM (inactive) | > 30.2 µM (inactive) | > 21.2 µM (inactive) | 24.7 µM (inactive)
6 | C=CCN1C(=O)/C(=C/c2ccc(OC)cc2)NC1=S | 54.5 µM (inactive) | > 100 µM (inactive) | > 100 µM (inactive) | > 100 µM (inactive) | 58.3 µM (inactive) | 18.3 µM (inactive) | 61.4 µM (inactive) | > 100 µM (inactive) | > 100 µM (inactive) | 60.4 µM (inactive) | > 100 µM (inactive) | > 100 µM (inactive) | > 100 µM (inactive) | 35.2 µM (inactive) | > 100 µM (inactive) | 34.8 µM (inactive) | 25.7 µM (inactive) | 57.9 µM (inactive) | < 0.01 µM (active) | > 100 µM (inactive)
7 | CC(=O)O[C@@H]1C2=C(C3=C([O-])C4=CC=CC(=O)C4C(=O)C3=C2[N+]#N)[C@H](OC(C)=O)[C@@H](OC(C)=O)[C@]1(C)O (some centres undefined) | 0.731 µM (active) | 0.128 µM (active) | 0.484 µM (active) | 0.306 µM (active) | 0.746 µM (active) | 0.605 µM (active) | 0.561 µM (active) | 0.743 µM (active) | 0.508 µM (active) | 0.923 µM (active) | 0.286 µM (active) | 0.951 µM (active) | 0.383 µM (active) | 0.115 µM (active) | – | 0.292 µM (active) | 0.184 µM (active) | – | 0.0323 µM (active) | 0.832 µM (active)
8 | O=C(CSCC(=O)N/N=C/c1cc(I)cc(I)c1O)N/N=C/c1cc(I)cc(I)c1O | 47 µM (inactive) | 17.2 µM (inactive) | 7.4 µM (inactive) | 5.83 µM (inactive) | 11.6 µM (inactive) | 16 µM (inactive) | 13.2 µM (inactive) | 18.9 µM (inactive) | 7.57 µM (inactive) | 9.04 µM (inactive) | 7.18 µM (inactive) | 10.5 µM (inactive) | 17.7 µM (inactive) | 26.5 µM (inactive) | 23.1 µM (inactive) | 27.4 µM (inactive) | 6.34 µM (inactive) | 32.9 µM (inactive) | – | 23.7 µM (inactive)
9 | O=[N+]([O-])C(/C=C(\Cl)[N+](=O)[O-])=C1Nc2ccccc2N1 | > 100 µM (inactive) | > 100 µM (inactive) | > 100 µM (inactive) | 52.4 µM (inactive) | > 100 µM (inactive) | 48.5 µM (inactive) | 42.6 µM (inactive) | 42.3 µM (inactive) | 35.5 µM (inactive) | 24.8 µM (inactive) | 36.7 µM (inactive) | 75.5 µM (inactive) | > 100 µM (inactive) | 44.3 µM (inactive) | 30.5 µM (inactive) | > 100 µM (inactive) | 56.6 µM (inactive) | 39.6 µM (inactive) | 34.8 µM (inactive) | –
10 | O=C(N/N=C(COc1ccccc1Cl)\N=C\c1ccncc1)c1ccncc1 | > 100 µM (inactive) | > 100 µM (inactive) | > 100 µM (inactive) | > 100 µM (inactive) | > 100 µM (inactive) | > 100 µM (inactive) | – | > 100 µM (inactive) | > 100 µM (inactive) | > 100 µM (inactive) | > 100 µM (inactive) | > 100 µM (inactive) | > 100 µM (inactive) | > 100 µM (inactive) | > 100 µM (inactive) | > 100 µM (inactive) | > 100 µM (inactive) | > 100 µM (inactive) | > 100 µM (inactive) | > 100 µM (inactive)
11 | O=C1/C(=C/c2ccccc2)NC(=S)N1CN1CCOCC1 | 72.8 µM (inactive) | > 100 µM (inactive) | > 100 µM (inactive) | > 100 µM (inactive) | > 100 µM (inactive) | > 100 µM (inactive) | > 100 µM (inactive) | > 100 µM (inactive) | – | 82.2 µM (inactive) | > 100 µM (inactive) | > 100 µM (inactive) | > 100 µM (inactive) | > 100 µM (inactive) | > 100 µM (inactive) | > 100 µM (inactive) | > 100 µM (inactive) | > 100 µM (inactive) | > 100 µM (inactive) | > 100 µM (inactive)
12 | C=C(C)C(=O)O[C@H]1C[C@@]23O[C@@H]2CCC(=C[C@H]2OC(=O)C(=C)[C@H]12)COC3O (some centres undefined) | > 100 µM (inactive) | 44.6 µM (inactive) | > 100 µM (inactive) | 35.3 µM (inactive) | > 100 µM (inactive) | 49.2 µM (inactive) | – | – | > 100 µM (inactive) | > 100 µM (inactive) | > 100 µM (inactive) | > 100 µM (inactive) | > 100 µM (inactive) | 23.4 µM (inactive) | 21.2 µM (inactive) | > 100 µM (inactive) | 39.6 µM (inactive) | 57.5 µM (inactive) | 17.2 µM (inactive) | 70.3 µM (inactive)
13 | Cc1cc(Cc2cc(Cc3cc(C)cc(C(C)(C)C)c3O)c(C)cc2C)c(O)c(C(C)(C)C)c1 | 11 µM (inactive) | 17.9 µM (inactive) | 24.1 µM (inactive) | 17.1 µM (inactive) | 17.4 µM (inactive) | 16.6 µM (inactive) | 18.1 µM (inactive) | 18 µM (inactive) | – | 16.1 µM (inactive) | > 100 µM (inactive) | 17.2 µM (inactive) | 14.5 µM (inactive) | 20 µM (inactive) | 19.5 µM (inactive) | 15.4 µM (inactive) | 24.9 µM (inactive) | 18.6 µM (inactive) | 16 µM (inactive) | > 100 µM (inactive)
14 | CN(O)C(=O)CCCC(=O)NCC(C)(C)CNC(=O)CCCC(=O)N(C)O | > 100 µM (inactive) | > 100 µM (inactive) | > 100 µM (inactive) | – | > 100 µM (inactive) | > 100 µM (inactive) | > 100 µM (inactive) | – | > 100 µM (inactive) | > 100 µM (inactive) | > 100 µM (inactive) | > 100 µM (inactive) | > 100 µM (inactive) | > 100 µM (inactive) | > 100 µM (inactive) | > 100 µM (inactive) | > 100 µM (inactive) | > 100 µM (inactive) | > 100 µM (inactive) | > 100 µM (inactive)
